Experimental data: patent US11613750B2, “Methods of reducing virus molecule levels” (priority 2019, dated 2023)
pEC50: −log10 of the molar value.

Assays:
[1] = tested on: HepG2.2.15 cells; assay: HepG2.2.15 cell viability, CellTiter-Glo; conditions: read-out: CC50, HepG2.2.15 cell viability; highest concentration tested 80 nM
Description: (§1) Cell viability was assessed by ATP levels determined using the CellTiter-Glo reagent and the results normalized to the level in mock-treated cells. HBsAg levels were quantified using ELISA and the data normalized to the level in the mock-treated cells.
The effects on cell viability were quantified using the CellTiter-Glo reagent. All data were normalized to the amount of protein produced by mock-treated cells.
(§2) The library of siRNAs of Example A5 were tested for the reduction of HBsAg secreted by HepG2.2.15 cells and in HBV virions.

[2] = tested on: RPLP2 protein; assay: Target protein reduction by Western blot in HepG2.2.15 cells; assay type: cell-based, human; conditions: 10 nM siRNA, 72 h
Description: The host factors likely function in viral infection as proteins. Therefore, we determined whether the siRNAs could decrease the amounts of the target protein. Cell transfected with 10 nM of each siRNA for 72 h were lysed and the target proteins identified using Western blots probed with target-specific antibodies. The effective siRNAs described in Table 3 reduced the levels of the proteins by between 28 and 92% of the mock-treated samples. The reduction in the proteins is less than the reduction of the target mRNA, likely due to the proteins have prolonged half-life and that more time is needed for their degradation. […] We reason that this is due to RPLP1 and RPLP2 functioning as heterodimers such that a decrease of one protein increases the vulnerability of the other protein to degradation. Similar concomitant decrease of the proteins was reported by Campos et al. (17). Finally, the levels of two cellular proteins that are not targeted by the siRNAs, P54nrb and GAPDH, were unaffected.

[3] = tested on: HBsAg; conditions: read-out: EC50, Extracell. HBsAg reduction; HepG2.2.15 cells
Description: as §1
The cellular proteins GRP78/BIP, SRSF1, HNRNPA2B1, RPLP1, and RPLP2 were identified as having roles in HBV replication and infection. Various siRNAs and combinations thereof targeting the RNAs encoding these proteins were contacted with HepG2.2.15 cells at a final concentration of 7.5 nM.
The EC50 values of several siRNAs and combinations of siRNAs targeting HNRNPA2B1, GRP78, RPLP1, RPLP2, and/or SRSF1 were determined with respect to the ability to reduce HBsAg levels in HepG2.2.15 cells.
(§3) The ability of siRNAs targeting host factors that then results in the reduced production of multiple HBV molecules was evaluated by quantifying the amount of HBsAg, HBeAg, and Core protein produced by HepG2.2.15 cells after contacting with 10 nM of siRNAs that target HNRNPA2B1, GRP78, RPLP1, RPLP2, and SRSF1. We also contacted the cells with 5 nM of each set of siRNAs that targets both RPLP1 and RPLP2. The level of HBsAg, HBeAg, and Core were all determined using ELISAs.
as §2

[4] = tested on: HCoV-OC43; assay: OC43 virion RNA, Branched DNA assay, infected HCT8 cells; assay type: cell-based, human coronavirus OC43; conditions: for OC43 vRNA reduction siRNA and siGRP78: 10 nM siRNA along with 10 nM of siRNA targeting GRP78, HCT8 cells; for OC43 vRNA reduction: 10 nM siRNA, HCT8 cells
Description: The siRNAs were transfected in the HCT8 cells at a final concentration of 10 nM. A positive control for the inhibition of Coronavirus infection, Remdesivir (Rem), was used at 0.9 μM. The virion RNAs (vRNAs) were quantified using a Branched DNA assay specific for OC43 RNA.
The two siRNAs are those referred to by compound number (see Table 2) in the horizontal bar, along with siRNA targeting GRP78, siGRP78. A positive control for the inhibition of Coronavirus infection, Remdesivir (Rem), was used at 0.9 μM. The vRNAs were quantified using a Branched DNA assay specific for OC43 RNA.
The siRNAs listed in Table 2 were transfected into human colon epithelial HCT8 cells and the amount of OC43 virion produced was quantified. In these assays, the OC43 vRNA was quantified using a Branched DNA assay (QuantiGene gene expression assay: ThermoFisher). As a positive inhibitory control, the infected cells were treated with Remdesivir. […] Examples of the inhibition of OC43 vRNA are illustrated in FIG. 5A.
A combination of siRNAs targeting the host factor should more robustly reduce OC43 virion production. To illustrate this, HCT8 cells were transfected with 10 nM of siRNAs from Table 2 along with 10 nM of siRNA targeting GRP78. The virion RNAs produced were quantified using the Branched DNA assay. […] A combination of siRNAs targeting host factors GRP78, SRSF1, RPLP1 and RPLP2 can lead to significant reduction in the production of human Coronavirus virion RNA from infected cells.

[5] = tested on: HBeAg; conditions: 10 nM siRNA transfected into cells
Description: HBeAg in the cell culture media was assessed using ELISAs.
as §3, §2

[6] = tested on: RPLP2 mRNA; assay: Target mRNA reduction by RT-qPCR in HepG2.2.15 cells; assay type: cell-based, human; conditions: 10 nM siRNA
Text: The siRNAs identified as described in Example A6 should function by a mechanism that includes being loaded in the RISC complex to cleave the cognate mRNA, leading to the degradation of the mRNA. To examine whether the siRNAs are effective in reducing the target mRNA, we used reverse transcription coupled with quantitative polymerase chain reaction (RT-qPCR) to assess the level of the target mRNA in HepG2.2.15 cells. All 32 siRNAs described in Table 2 reduced the mRNA by more than 75% (Table 3).

Row | Substance | CC50 [1] [nM] | Target protein reduction in HepG2.2.15 cells [2] [%] | pEC50 [3] | OC43 vRNA reduction siRNA and siGRP78 [4] [%] | OC43 vRNA reduction [4] [%] | HBeAg reduction HepG2.2.15 cells [5] [%] | Target RNA reduction in HepG2.2.15 cells [6] [%]
1 | 40 (AGUCUGAAGAGUCAGAUGAUGUUCAUCAUCUGACUCUUCAGACUUU; siRNA; Self-complementary hairpin strand, chemistry not given here, further chemistry not given here; listed as Homo sapiens) [compound 40] | > 80 | 54 ± 2 | 9.94 | 79 ± 15 | 89 ± 5 | 56 ± 3 | 98 ± 1
2 | 42 (CCCAGCGCCAAGGACAUCAAGUUCUUGAUGUCCUUGGCGCUGGGUU; siRNA; Self-complementary hairpin strand, chemistry not given here, further chemistry not given here; listed as Homo sapiens) [compound 42] | > 80 | 50 ± 4 | 9.41 | 85 ± 7 | 57 ± 5 | 42 ± 2 | 95 ± 1
3 | 43 (GUAUCGAGGCGGACGACGACCUUGGUCGUCGUCCGCCUCGAUACUU; siRNA; Self-complementary hairpin strand, chemistry not given here, further chemistry not given here; listed as Homo sapiens) [compound 43] | > 80 | 45 ± 4 | 9.74 | 92 ± 2 | 94 ± 1 | 70 ± 5 | 94 ± 2
4 | 48 (GCGCCAAGGACAUCAAGAATTUUCUUGAUGUCCUUGGCGCAA; siRNA; Self-complementary hairpin strand, chemistry not given here, further chemistry not given here; listed as Homo sapiens) [compound 48] | > 80 | 54 ± 8 | 10.00 | 88 ± 5 |  | 32 ± 5 | 97 ± 0
5 | 45 (GGAAAAAACAUUGAAGACGUCUUGACGUCUUCAAUGUUUUUUCCUU; siRNA; Self-complementary hairpin strand, chemistry not given here, further chemistry not given here; listed as Homo sapiens) [compound 45] | > 80 | 61 ± 7 | 10.89 | 89 ± 2 |  | 42 ± 5 | 98 ± 1
6 | 38 (AGUGUACCUGCUGGUGGGGCUUUAGCCCCACCAGCAGGUACACUUU; siRNA; Self-complementary hairpin strand, chemistry not given here, further chemistry not given here; listed as Homo sapiens) [compound 38] | > 80 | 55 ± 2 | 10.12 | 61 ± 14 | 39 ± 6 |  | 96 ± 1
7 | 51 (GAAGAUCUUGGACAGCGUGTTCACGCUGUCCAAGAUCUUCTT; siRNA; Self-complementary hairpin strand, chemistry not given here, further chemistry not given here; listed as Homo sapiens) [compound 51] | > 80 | 56 ± 5 | 10.00 | 90 ± 2 |  | 32 ± 4 | 98 ± 0
8 | 35 (GGGAUUUGGCCUUUUUGAUUATTAUCAAAAAGGCCAAAUCCCAUTT; siRNA; Self-complementary hairpin strand, chemistry not given here, further chemistry not given here; listed as Homo sapiens) [compound 35] | > 80 | 78 ± 16 | 11.00 | 96 ± 1 | 94 ± 6 | 69 ± 3 | 98 ± 0
9 | 46 (GAAAGAUGAGAAGAAGGAGGAUUUCCUCCUUCUUCUCAUCUUUCUU; siRNA; Self-complementary hairpin strand, chemistry not given here, further chemistry not given here; listed as Homo sapiens) [compound 46] | > 80 | 56 ± 8 | 8.96 | 87 ± 4 |  | 44 ± 5 | 98 ± 1
10 | 50 (CGACCGGCUCAACAAGGUUTTAACCUUGUUGAGCCGGUCGTC; siRNA; Self-complementary hairpin strand, chemistry not given here, further chemistry not given here; listed as Homo sapiens) [compound 50] | > 80 | 48 ± 2 | 10.02 | 91 ± 2 |  | 42 ± 5 | 98 ± 1
11 | 49 (AAACAUUGAAGACGUCAUUTTAAUGACGUCUUCAAUGUUUTT; siRNA; Self-complementary hairpin strand, chemistry not given here, further chemistry not given here; listed as Homo sapiens) [compound 49] | > 80 | 59 ± 4 | 10.59 | 91 ± 3 |  | 32 ± 6 | 98 ± 1
12 | 37 (CUGAAUGGAAAAAACAUUGAAUUUUCAAUGUUUUUUCCAUUCAGUU; siRNA; Self-complementary hairpin strand, chemistry not given here, further chemistry not given here; listed as Homo sapiens) [compound 37] | > 80 | 71 ± 10 | 10.31 | 88 ± 5 | 94 ± 2 | 53 ± 3 | 98 ± 1
